Data on four compounds can be found in publication PMC5516028, “Molecular tools for GABAA receptors: High affinity ligands for β1-containing subtypes” (Scientific Reports, 2017).

Assay [1] has as its target benzodiazepine binding site, rat cerebellum membranes. Briefly: [3H]flunitrazepam saturation binding, rat cerebellar membranes. The settings on record: n = 3, read-out: equilibrium binding constant KD.
Method: In brief, membrane pellets were incubated for 90 min at 4 °C in a total of 500 µL of a solution containing 50 mM Tris/citrate buffer, pH = 7.1, 150 mM NaCl and 2 nM [^3H]flunitrazepam in the absence or presence of either 5 µM diazepam (to determine unspecific binding) or various concentrations of receptor ligands (dissolved in DMSO, final DMSO-concentration 0.5%). Membranes were filtered through Whatman GF/B filters and washed twice with 4 mL of ice-cold 50 mM Tris/citrate buffer. Filters were transferred to scintillation vials and subjected to scintillation counting after the addition of 3 mL Rotiszint Eco plus liquid scintillation cocktail. Nonlinear regression analysis of the displacement curves used the equation: log(inhibitor) vs. response - variable slope with Top = 100% and Bottom = 0% Y = 100/(1 + 10^((logIC50-x)*Hillslope)).
For assay [2], the system named is γ2 subunit containing GABAA receptors. Briefly: Control of γ2 subunit incorporation with diazepam. The class given is cell-based, rat. The note with it: 1 µM. The method, then:
(§1) For electrophysiological recordings, oocytes were placed on a nylon-grid in a bath of Ca^2+-containing NDE solution medium [96 mM NaCl, 5 mM HEPES-NaOH (pH 7.5), 2 mM KCl, 1 mM MgCl2, 1.8 mM CaCl2]. For current measurements the oocytes were impaled with two microelectrodes (1–3 MΩ resistance) filled with 2 M KCl. […] The EC3–5 was determined at the beginning of each experiment. Drugs were diluted into NDE from DMSO-solutions resulting in a final concentration of 0.1% DMSO perfusing the oocytes. […] Between two applications, oocytes were washed in NDE for up to 15 min to ensure full recovery from desensitization. […] All recordings were performed at room temperature at a holding potential of […] using a Dagan TEV-200A two-electrode voltage clamp (Dagan Corporation, Mineapolis, MN). Data were digitized, recorded and measured using an Axon Digidata- 1550 low-noise data acquisition system (Axon Instruments, Union City, CA).

Assay [3] concerns the target T1, γ1 subunit containing GABAA receptors (Rattus norvegicus, UniProt P15431+P62813).
T1 construct: expressed in transfected cells; host or cells: Xenopus laevis oocytes, mRNA injected
The assay can be described thus: Control of γ1 subunit incorporation with triazolam. The note with it: 10 µM. The class given is cell-based. Here is the method: as §1

Assay [4] has as its system δ subunit containing GABAA receptors. The assay can be described thus: Control of δ subunit incorporation with DS2. The class given is cell-based, rat. The note with it: 1 µM. The method, then: as §1, with “desensitization. Maximum currents measured in mRNA injected oocytes were in the microampere range for all subtypes of GABAA receptors. […] In order to monitor receptor composition, diazepam (~200% modulation at 1 µM) was used to investigate the incorporation of the γ2[25] subunit, DS2 (>800% modulation at 1 µM) for the incorporation of the δ subunit and triazolam (>200% modulation at 10 µM) for the γ1 incorporation.” for “desensitization.”, “CA). […]” for “CA).”

T1 sequence (P62813 28-455): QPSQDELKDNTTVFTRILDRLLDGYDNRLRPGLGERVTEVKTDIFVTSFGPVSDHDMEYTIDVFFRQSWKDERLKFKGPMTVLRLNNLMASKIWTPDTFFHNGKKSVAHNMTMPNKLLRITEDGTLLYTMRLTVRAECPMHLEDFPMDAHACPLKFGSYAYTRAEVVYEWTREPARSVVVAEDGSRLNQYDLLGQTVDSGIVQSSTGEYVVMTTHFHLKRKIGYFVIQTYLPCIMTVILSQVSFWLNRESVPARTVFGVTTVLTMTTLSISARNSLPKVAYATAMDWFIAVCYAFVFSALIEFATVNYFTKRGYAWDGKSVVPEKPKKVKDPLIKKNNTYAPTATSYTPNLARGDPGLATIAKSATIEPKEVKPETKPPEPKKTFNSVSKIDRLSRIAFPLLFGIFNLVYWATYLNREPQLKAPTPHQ
T1 sequence (P15431 26-474): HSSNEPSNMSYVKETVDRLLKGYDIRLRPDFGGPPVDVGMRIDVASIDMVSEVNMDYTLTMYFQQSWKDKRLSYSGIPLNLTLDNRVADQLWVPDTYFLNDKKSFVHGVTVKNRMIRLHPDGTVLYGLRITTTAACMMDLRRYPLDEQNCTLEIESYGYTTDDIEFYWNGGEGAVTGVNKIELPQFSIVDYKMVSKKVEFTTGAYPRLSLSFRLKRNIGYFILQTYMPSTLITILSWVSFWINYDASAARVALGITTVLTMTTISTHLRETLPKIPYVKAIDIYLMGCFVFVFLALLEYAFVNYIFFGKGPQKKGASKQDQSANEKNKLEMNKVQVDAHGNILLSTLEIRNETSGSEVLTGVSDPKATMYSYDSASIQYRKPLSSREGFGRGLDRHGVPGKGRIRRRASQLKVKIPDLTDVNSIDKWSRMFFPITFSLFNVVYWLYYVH
T1 sequence (P23574 36-465 partner limits assumed): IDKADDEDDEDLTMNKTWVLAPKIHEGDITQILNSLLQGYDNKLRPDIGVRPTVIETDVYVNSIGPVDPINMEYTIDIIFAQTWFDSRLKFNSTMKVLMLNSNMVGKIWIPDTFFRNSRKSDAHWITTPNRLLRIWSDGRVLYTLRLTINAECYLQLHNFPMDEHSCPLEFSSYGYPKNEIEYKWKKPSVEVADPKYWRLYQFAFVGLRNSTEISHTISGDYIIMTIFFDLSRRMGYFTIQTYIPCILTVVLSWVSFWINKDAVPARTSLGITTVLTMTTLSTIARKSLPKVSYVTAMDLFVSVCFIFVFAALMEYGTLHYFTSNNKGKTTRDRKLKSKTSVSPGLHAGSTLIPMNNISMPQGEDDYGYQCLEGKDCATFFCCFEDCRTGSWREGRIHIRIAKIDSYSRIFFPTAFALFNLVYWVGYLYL

On to `CN1C(=O)CN=C(c2ccccc2F)c2cc([N+](=O)[O-])ccc21` [[^3H]flunitrazepam], for which, in assay [1], the Kd was 4.8 ± 0.3 nM.

Turning to `CN1C(=O)CN=C(c2ccccc2)c2cc(Cl)ccc21` [diazepam, Diazepam], the modulation in assay [2] is recorded as ~ 200%. For the compound `Cc1nnc2n1-c1ccc(Cl)cc1C(c1ccccc1Cl)=NC2` [triazolam, Triazolam], the modulation in assay [3] is listed as over 200%.

Turning to `O=C(Nc1c(-c2cccs2)nc2ccccn12)c1ccc(Cl)cc1` [DS2], the modulation in assay [4] is listed as over 800%.

By Kd is commonly meant the constant that tells how readily two partners part at equilibrium.
